Where two headings read alike, the source gives them in different places.

The results in this text go back to publication PMC3293897, “Diphenyl Urea Derivatives as Inhibitors of Transketolase: A Structure-Based Virtual Screening” (PLoS ONE, 2012).

The test system of one assay is HCT116 cells. As to the kind of experiment: MTT cell viability assay, HCT116. In kind it is cell-based, human. The protocol:
(§1) HCT116 human colon carcinoma cells (gift from Dr Capellà, Institut Català d'Oncologia, Barcelona, Spain) were grown in DMEM∶HAM F12 (1∶1), supplemented with 10% heat-inactivated foetal calf serum (FCS) (PAA Laboratories, Pasching, Austria), L-glutamine (2 mM), pyruvic acid (1 mM), non-essential aminoacids (1%) and antibiotics: 100 U×mL^−1 penicillin and 100 µg×mL^−1 streptomycin. HT29 human colon adenocarcinoma cells (obtained from the American Type Culture Collection -ATCC-) were grown in Dulbecco's Modified Eagle's Medium, 25 mM D-glucose, 4 mM L-glutamine supplemented with 10% heat-inactivated FCS, and antibiotics: 100 U×mL^−1 penicillin and 100 µg×mL^−1 streptomycin (Invitrogen, Paisley, UK). All cell cultures were carried out at 37°C in a humidified atmosphere with 5% CO2. Subconfluent monolayers of cells were used in all experiments.
(§2) Cell viability was determined using the MTT assay, which is based on the ability of live cells to cleave the tetrazolium ring, thus producing formazan, which absorbs at 570 nm. 5000 cells/well HT29 cells or 1700 cells/well HCT116 cells were seeded into 96-well plates and incubated for 24 h prior to the addition of the different compounds at different concentrations, in triplicate. After incubation for 72 h, the supernatant was aspirated and 100 µL of filtered MTT (0.5 mg/mL) was added to each well. Following 1 h of incubation, the supernatant was removed and the formazan precipitated was dissolved in DMSO. Relative cell viability was measured by absorbance at 550 nm on an ELISA plate reader (Tecan Sunrise MR20-301, TECAN, Austria). Concentrations that inhibited cell growth by 50% (IC50) after treatment were determined.
Background: Formazan colour is commonly taken as a measure of viable cells.

In assay [1] the target is T1, Transketolase from cell extract (Homo sapiens, UniProt P29401).
T1 construct: approximately 300 µg of protein cell extract used for the determination of transketolase enzyme activity; endogenous in cells; host or cells: Cultured cells
T1 sequence (P29401 1-623): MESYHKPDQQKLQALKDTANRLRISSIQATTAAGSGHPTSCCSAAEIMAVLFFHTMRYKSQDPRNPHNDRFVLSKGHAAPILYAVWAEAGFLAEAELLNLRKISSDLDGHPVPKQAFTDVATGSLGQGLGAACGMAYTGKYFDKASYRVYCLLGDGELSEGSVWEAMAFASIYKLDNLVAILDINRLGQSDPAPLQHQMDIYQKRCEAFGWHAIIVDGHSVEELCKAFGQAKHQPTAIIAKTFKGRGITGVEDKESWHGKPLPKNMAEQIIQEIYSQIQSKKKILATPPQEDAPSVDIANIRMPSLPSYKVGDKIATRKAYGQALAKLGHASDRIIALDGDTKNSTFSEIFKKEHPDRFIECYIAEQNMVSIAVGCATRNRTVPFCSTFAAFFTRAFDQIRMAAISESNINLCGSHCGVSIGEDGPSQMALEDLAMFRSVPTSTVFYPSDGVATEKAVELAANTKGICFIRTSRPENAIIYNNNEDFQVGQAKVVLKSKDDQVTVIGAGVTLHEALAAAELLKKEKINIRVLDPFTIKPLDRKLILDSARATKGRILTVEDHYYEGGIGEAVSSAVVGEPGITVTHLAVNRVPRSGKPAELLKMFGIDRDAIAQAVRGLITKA
As to the kind of experiment: Transketolase activity in cell extract (enzyme-linked NADH oxidation, spectrophotometric/fluorimetric). In kind it is biochemical. The note with it: for inhibitory activity class (Figure 2): Figure 2 grouping. The protocol:
Cell cultures were washed with PBS, detached from the flasks using 0.025% trypsin-EDTA and then resuspended in lysis buffer (1 mM dithiothreitol, 1 mM EDTA, 0.02% Triton X-100, 0.02% sodium deoxycholate, 0.2 mM phenylmethylsulfonyl fluoride, 1% sodium azide and 20 mM Tris-HCl, pH 7.5). Cells were homogenized using a laboratory sonicator (1/2 Liter Branson 200 Ultrasonic bath, 5 min, 40 kHz, 4°C) and immediately ultracentrifuged at 105000×g for 1 hour at 4°C. The supernatant was separated and approximately 300 µg of protein cell extract used for the determination of transketolase enzyme activity using a Cobas Mira Plus chemistry analyzer (HORIBA ABX, Montpellier, France) or a spectrofluorimeter Kontron SFM-25 (Bio-Tek Instruments, VT, United States).
Transketolase (EC 2.2.1.1) activity was determined using the enzyme linked method described by Smeets and colleagues. Briefly, cell extract and inhibitors were added to a cuvette containing 5 mM MgCl2, 0.2 U×mL^−1 glycerophsphate dehydrogenase-triosephosphate isomerase (from rabbit muscle), 0.2 mM NADH, 0.1 mM thiamine pyrophosphate (TPP) and 50 mM Tris-HCl, pH 7.6 at 37°C. The reaction was initiated by the addition of 300 µL substrate mixture (see below) per mL of cuvette volume. The oxidation of NADH, which is directly proportional to transketolase activity, was followed by the decrease in absorbance at 340 nm (spectrophotometric method) or in fluorescence at 450 nm when excited at 330 nm (fluorimetric method) before and after the addition of the different compounds tested. A blank with all the assay components but the sample was performed in each experiment by measuring the oxidation of NADH. The substrate mixture was prepared by dissolving 50 mM ribose-5-phosphate in 50 mM Tris-HCl, pH 7.6, and adding 0.05 IU ribulose-5-phosphate-3-epimerase (from baker's yeast) and 0.25 IU phosphoriboisomerase (from spinach). The substrate mixture was continuously stirred and heated for 1 hour at 37°C and then kept at −20°C until use.
Protein concentration of cell extracts was determined using the BCA Protein Assay (Pierce Biotechnology, Rockford, IL) to calculate the specific activity of the transketolase enzyme.

A further assay concerns HT29 cells. The assay is described as follows: MTT cell viability assay, HT29. Format: cell-based, human. The method, then: as §1, §2
Where [2] appears, read: Homo sapiens, HCT-116, 72 h incubation, read-out: IC50 Cell viability (HCT116 cells).
[3] abbreviates: Homo sapiens, HT-29, 72 h incubation, read-out: IC50 Cell viability (HT29 cells).

The term IC50 denotes the midpoint of a concentration-inhibition curve. For `O=C(Nc1ccccc1)Nc1cc(Cl)c([N+](=O)[O-])cc1O` [T2B], the IC50 with HCT116 cells (setting [2]) was 12 µM; in assay [1] (cell extract, compound concentration varied 50 to 300 µM, read-out: IC50 Transketolase from cell extract), 100 µM; with HT29 cells (setting [3]) it was 6 µM. Besides, the “inhibitory activity class (Figure 2)” value in assay [1] is reported as “Actives”.

As for `Cc1c(Cl)cccc1NC(=O)Nc1cc([N+](=O)[O-])ccc1O` [T2], the half-maximal inhibitory concentration (IC50) with HCT116 cells (setting [2]) was 9 µM; in assay [1] it was 200 µM; in the assay with HT29 cells (setting [3]), 10 µM. The “inhibitory activity class (Figure 2)” value in assay [1] is reported as “Actives”.

On to `Cc1ccc([N+](=O)[O-])cc1NC(=O)Nc1cccc2c(O)cccc12` [T2A], for which the IC50 stood at 17 µM with HCT116 cells (setting [2]), 150 µM in assay [1] and 15 µM in the assay with HT29 cells (setting [3]). In addition, in assay [1], the “inhibitory activity class (Figure 2)” value is “Actives”.

For the compound `Cc1ncc(C[n+]2csc(CCO)c2C)c(=O)[nH]1` [oxythiamine, reference compound], the concentration for half-maximal inhibition (IC50) with HCT116 cells (72 h incubation, read-out: IC50 cell viability (HCT116)) was found to be 8000 µM; with HT29 cells (72 h incubation, read-out: IC50 cell viability (HT29)), 8000 µM.

For `Cc1c(Cl)cccc1NC(=O)Nc1ccc(CC(=O)O)cc1` [T2C], the figures for the half-inhibitory concentration (IC50) (in the assay on HCT116 cells (setting [2]); in assay [1]; in the assay on HT29 cells (setting [3])) were 200 µM, > 200 µM and 200 µM, respectively. The “inhibitory activity class (Figure 2)” value in assay [1] is “Inactives”. Besides, the “transketolase inhibition in the enzymatic assay (in words)” value (from here on “transketolase inhibition”) in assay [1] (cell extract) was “inactive”.

On to `Cc1c(Cl)cccc1NC(=O)Nc1cccc(O)c1` [T2F], for which, in assay [1], the half-maximal inhibitory concentration (IC50) was > 200 µM and the “inhibitory activity class (Figure 2)” value is reported as “Inactives”. The “transketolase inhibition” value in assay [1] (cell extract) is recorded as “no activity”.

Take `O=[N+]([O-])c1cccc(NC(=S)Nc2cc(Cl)ccc2O)c1` [T2E]: the 50% inhibitory concentration (IC50) in the assay on HCT116 cells (setting [2]) was 13 µM; in assay [1], > 200 µM; in the assay with HT29 cells (setting [3]), 20 µM. Also, the “inhibitory activity class (Figure 2)” value in assay [1] is recorded as “Inactives”. The “transketolase inhibition” value in assay [1] (cell extract) is recorded as “poorly active”.

For `CCc1ccc(NC(=O)Nc2cccc([N+](=O)[O-])c2)c(CC)c1` [T2D], the concentration for half-maximal inhibition (IC50) (in the assay on HCT116 cells (setting [2]); in assay [1]; in the assay on HT29 cells (setting [3])) was > 200 µM in each case. Moreover, the “inhibitory activity class (Figure 2)” value in assay [1] is recorded as “Inactives”. The “transketolase inhibition” value in assay [1] (cell extract) is “no inhibition of transketolase”.
